Results: ChEMBL document CHEMBL5543103, “Toward a Template for Synthetic Actin-Targeting Macrolide Analogues That Inhibit Cancer Cell Invasiveness” (J Med Chem, 2024)
Active and inactive are the calls of the source. The calls are words filed in the database; no cut-off is given here.

Columns and labels:
Oryctolagus cuniculus = species on record: Oryctolagus cuniculus; test: (§1) Inhibition of rabbit skeletal muscle G-actin polymerization at 0.5 uM preincubated for 50 sec followed by ATP addition and measured for 600 sec by fluorescence spectrophotometer method relative to control; conditions: time 650.0 sec
Homo sapiens = species on record: Homo sapiens; test: Induction of F-actin depolymerization (unknown origin) at 10 uM measured for 900 sec in presence of ATP by fluorescence spectrophotometer method relative to MycB
[1] = Partition coefficient, logP of compound; format: physicochemical; conditions: octanol/water
Cell membrane [2] = test: Disruption of membrane in human SK-OV-3 cells assessed as F-actin aggregates formation at 1 uM; format: cell membranes
Cell membrane [3] = test: Disruption of membrane projections in human SK-OV-3 cells at 1 uM; format: cell membranes
A549 [4] = test: Inhibition of cell invasion in human A549 cells assessed as decrease in wound density at 10 uM after 50 hrs by IncuCyte live-cell imaging analysis; format: functional, cell-based
L1210 = test: Cytotoxicity against mouse L1210 cells; format: functional, cell-based
Cell membrane [5] = test: Disruption of membrane projections in human SK-OV-3 cells at 0.1 uM; format: cell membranes
Cell membrane [6] = test: Disruption of membrane in human SKOV3 cells assessed as F-actin aggregates formation at 0.1 uM; format: cell membranes; conditions: SK-OV-3
B16 = test: Cytotoxicity against mouse B16 cells; format: functional, cell-based
A549 [7] = test: Inhibition of cell invasion in human A549 cells assessed as decrease in wound density at 0.1 uM after 50 hrs by IncuCyte live-cell imaging analysis; format: functional, cell-based
[8] = as §1; design: species or system Oryctolagus cuniculus
KB = test: Cytotoxicity against human KB cells; format: functional, cell-based

SMILES	inhibition (Oryctolagus cuniculus)	Activity (Homo sapiens)	also measured
CCC(=O)O[C@@H](C[C@H](OC)[C@@H](C)CC[C@@H](OC(=O)[C@H]1CCCO1)[C@H](C)[C@H](OC)[C@H](C)/C=C/N(C)C=O)C(C)C	72%	75%	logP [1]: 5.3
CCN(C=O)/C=C/[C@@H](C)[C@@H](OC)[C@@H](C)[C@@H](CC[C@H](C)[C@H](C[C@H](OC(=O)CCCN)C(C)C)OC)OC(=O)[C@H]1CCCO1	–	–	Activity (Cell membrane [2]): Active; Activity (Cell membrane [3]): Active; inhibition (A549 [4]): Active; logP [1]: 4.55
CO[C@@H]1C/C=C/c2nc(co2)-c2nc(co2)-c2nc(co2)[C@@H](C)CC(=O)CCC[C@@H](O)CC(=O)O[C@H](C[C@@H](OC)[C@@H](C)CCC(=O)[C@H](C)[C@H](OC(C)=O)[C@H](C)/C=C/N(C)C=O)[C@H]1C	–	–	IC50 (L1210): 10 nM
CCC(=O)O[C@@H](C[C@H](OC)[C@@H](C)CC[C@@H](OC(=O)C(C)C)[C@H](C)[C@H](OC)[C@H](C)/C=C/N1CCCCC1=O)C(C)C	18%	14%	–
CCC(=O)O[C@@H](C[C@H](OC)[C@@H](C)CC[C@@H](OC(=O)C(C)C)[C@H](C)[C@H](OC)[C@H](C)/C=C/N1CCCC1=O)C(C)C	29%	26%	–
CCC(=O)O[C@@H](C[C@H](OC)[C@@H](C)CC[C@@H](OC(=O)C(C)C)[C@H](C)[C@H](OC)[C@H](C)/C=C/N(C=O)CC(F)(F)F)C(C)C	81%	53%	–
CCC(=O)O[C@@H](C[C@H](OC)[C@@H](C)CC[C@@H](OC(=O)C(C)C)[C@H](C)[C@H](OC)[C@H](C)/C=C/N(C)C=O)C(C)C	21%	6%	–
COC[C@@H](OC)C(=O)O[C@H](CC[C@H](C)[C@H](C[C@@H]1OC(=O)C[C@@H](O)C/C=C/C(=O)[C@H](C)[C@H](OC)c2coc(n2)-c2coc(n2)-c2coc(n2)/C=C/C[C@H](OC)[C@H]1C)OC)[C@H](C)[C@H](OC(C)=O)[C@H](C)/C=C/N(C)C=O	–	–	Activity (Cell membrane [5]): Active; Activity (Cell membrane [6]): Active; IC50 (B16): 0.5 nM; inhibition (A549 [7]): Active
CCCN(C=O)/C=C/[C@@H](C)[C@@H](OC)[C@@H](C)[C@@H](CC[C@H](C)[C@H](C[C@H](OC(=O)CC)C(C)C)OC)OC(=O)C(C)C	40%	32%	–
CCC(=O)O[C@@H](C[C@H](OC)[C@@H](C)CC[C@@H](OC(=O)[C@H]1CCCO1)[C@H](C)[C@H](OC)[C@H](C)/C=C/N(C=O)CC)C(C)C	63%	77%	logP [1]: 5.67
CCC(=O)O[C@@H](C[C@H](OC)[C@@H](C)CC[C@@H](OC(=O)[C@@H]1CCCO1)[C@H](C)[C@H](OC)[C@H](C)/C=C/N(C)C=O)C(C)C	50%	67%	–
CC[C@@H](O)C[C@H](OC)[C@@H](C)CC[C@@H](OC(=O)C(C)C)[C@H](C)[C@H](OC)[C@H](C)/C=C/N(C)C=O	30%	0%	–
CCC(=O)O[C@@H](C[C@H](OC)[C@@H](C)CC[C@@H](OC(=O)C1CCCCC1)[C@H](C)[C@H](OC)[C@H](C)/C=C/N(C)C=O)C(C)C	65%	20%	–
CCC(=O)O[C@@H](C[C@H](OC)[C@@H](C)CC[C@@H](OC(=O)c1ccco1)[C@H](C)[C@H](OC)[C@H](C)/C=C/N(C)C=O)C(C)C	43%	41%	–
CCC(=O)O[C@@H](C[C@H](OC)[C@@H](C)CC[C@@H](OC(=O)C(C)C)[C@H](C)[C@H](OC)[C@H](C)/C=C/N1CCC1=O)C(C)C	30%	12%	–
CO[C@@H]([C@@H](C)[C@@H](CC[C@H](C)[C@H](C[C@H](OC(=O)CCCN)C(C)C)OC)OC(=O)[C@H]1CCCO1)[C@H](C)/C=C/N(C)C=O	53%	58%	inhibition (A549 [4]): Active; logP [1]: 4.18
CCC(=O)O[C@H](CC)C[C@H](OC)[C@@H](C)CC[C@H](OC(=O)CC)[C@H](C)[C@H](OC)[C@H](C)/C=C/N(C)C=O	–	17%	IC50 [8]: 5500 nM
CCC(=O)O[C@@H](C[C@H](OC)[C@@H](C)CC[C@@H](OC(=O)C1CCC1)[C@H](C)[C@H](OC)[C@H](C)/C=C/N(C)C=O)C(C)C	67%	52%	–
CCC(=O)O[C@@H](C[C@H](OC)[C@@H](C)CC[C@@H](OC(=O)C1CCCC1)[C@H](C)[C@H](OC)[C@H](C)/C=C/N(C)C=O)C(C)C	53%	39%	–
CO[C@@H](C[C@@H]1OC(=O)C[C@@H](O)C[C@H](O)C[C@H](O)[C@H](C)[C@@H](OC)c2coc(n2)-c2coc(n2)-c2coc(n2)/C=C/CC[C@H]1C)[C@@H](C)CCC(=O)[C@H](C)[C@@H](C/C=C/N(C)C=O)OC	–	–	IC50 (L1210): < 1 nM
CO[C@@H]1CC2=CC(=O)O[C@H](C2)[C@H](C)[C@H](OC)C[C@@H](OC)/C=C/[C@H](C)[C@@H](OC)C[C@@H](OC)/C=C/[C@H](C)[C@@H]([C@@H](C)[C@@H](OC)[C@@H](C)CCC(=O)[C@H](C)[C@@H](C/C=C/N(C)C=O)OC)OC(=O)/C=C/C=C(\C)C1	–	–	IC50 (KB): 100 nM
CCC(=O)O[C@H](CC)C[C@H](OC)[C@@H](C)CC[C@@H](OC(=O)C(C)C)[C@H](C)[C@H](OC)[C@H](C)/C=C/N(C)C=O	40%	33%	–
CCC(=O)O[C@@H](C[C@H](OC)[C@@H](C)CC[C@@H](OC(=O)C(C)C)[C@H](C)[C@H](OC)[C@H](C)/C=C/N(C=O)CC)C(C)C	85%	87%	–
CCC(=O)O[C@@H](C[C@H](OC)[C@@H](C)CC[C@@H](OC(=O)C(C)C)[C@H](C)C(OC)[C@H](C)/C=C/N(C=O)C1CC1)C(C)C (single isomer, unassigned)	77%	56%	–
CCC(=O)O[C@@H](C[C@H](OC)[C@@H](C)CC[C@@H](OC(=O)C(C)C)[C@H](C)[C@H](OC)[C@H](C)/C=C/N(C)C=O)C1CCCCC1	52%	45%	–
CO[C@H]([C@H](C)/C=C/N(C)C=O)[C@@H](C)C(=O)CC[C@H](C)[C@H](C[C@@H]1OC(=O)C[C@@H](OC(N)=O)C[C@H](C)C[C@H](O)[C@H](C)[C@@H](OC)c2coc(n2)-c2coc(n2)-c2coc(n2)/C=C/C[C@H](OC)[C@H]1C)OC [KABIRAMIDE C]	–	–	IC50 (L1210): 10 nM
CCC(=O)O[C@H](CC)C[C@H](OC)[C@@H](C)CC[C@@H](OC(=O)CC)[C@H](C)[C@H](OC)[C@H](C)/C=C/N(C)C=O	–	42%	IC50 [8]: 1000 nM
CCC(=O)O[C@@H](C[C@H](OC)[C@@H](C)CC[C@@H](OC(=O)[C@H]1CCCN1C)[C@H](C)[C@H](OC)[C@H](C)/C=C/N(C)C=O)C(C)C	45%	25%	–
